Measured values published in US20110124666A1, “3,4-DIHYDROPYRIMIDINE TRPA1 ANTAGONISTS” (Janssen Pharmaceutica NV a corporation, priority 2008, published 2011).

Key:
hTRPA1 = molecular target: T1, hTRPA1 (Homo sapiens, UniProt O75762); assay: Ca2+ fluorometry TRPA1 antagonism in hTRPA1/TREx-HEK293 cells (FDSS); type: cell-based; conditions: 11H-dibenzo[b,e]azepine-10-carboxylic acid methyl ester as TRPA1 agonist (25 nM), hTRPA1-HEK cells, Fluo4-AM
T1 construct: expressed in transfected cells
Text: The Human TRPA1 gene was cloned into the pT-REx-Dest30 inducible vector and afterwards stably transfected in T-Rex^TM-293 cells (purchased from Invitrogen, Merelbeke, Belgium). This tetracyclin inducible hTRPA1 expression system was used in order to prevent Ca^2+ overload in the cultured cells due to sustained TRPA1 expression. hTRPAl/TREx-HEK293 cells (referred to as hTRPA1 cells in the following text) were maintained under standard sterile cell culture conditions.
Binding of an agonist to the TRPA1 ion-channel activates and opens the ion-channel which causes a robust increase in intracellular Ca^2+ concentration. For detecting and measuring intracellular Ca^2+ concentration, cells were loaded with a Ca^2+-sensitive dye. Changes in fluorescence in the cell, that correspond to changes in Ca^2+ concentration in the cell, can kinetically be monitored with the FDSS instrument (Hamamatsu) and are indicative for agonism towards the TRPA1 ion channel and this can be reduced by TRPA1-receptor antagonists.
The cells were seeded in poly-D-lysine-coated 384-well round bottom polypropylene plates (Costar Corning, Data Packaging, Cambridge Mass., USA) at 12000 cells/well. 50 ng/ml tetracycline was added to induce the hTRPA1 expression 24 h before the experiment.
The cells were loaded with 5 mg/l Fluo4-AM (Molecular Probes, Invitrogen, Merelbeke, Belgium) dissolved in HBSS seeding medium supplemented with 0.7 g/l Probenecid (Sigma) and incubated for 1 h at 37° C. and subsequently at 20° C. for 1 to 2 h. The fluorescence was measured in the FDSS 6000 imaging based plate reader (Hamamutsu Photonics K.K., Hamamutsu City, Japan). The excitation wavelength was 488 nm and the emission wavelength 540 nm. After a control period of 12 seconds the JNJ compounds were added and the Ca^2+ signal was measured within 14 minutes after application. Finally, the control TRPA1 agonist 11H-dibenzo[b,e]azepine-10-carboxylic acid methyl ester [the synthesis of which is hereafter described as compound (D-6)] or BITC (benzylisothiocyanate, FLUKA) was added at a final concentration of 25 nM. […] The emission ratio was calculated by dividing the emission signal (Em540) by the first Em540 signal of the control period to compensate for the background fluorescence. On every 384 well plate 4 series of DMSO control experiments were performed of which 2 with and 2 without control agonist 11H-dibenzo[b,e]azepine-10-carboxylic acid methyl ester or BITC. For intracellular Ca^2+ measurements compound stock solutions (10 or 100 mM) were further diluted in DMSO in order to obtain finally 1% DMSO in the extracellular solution.

T1 sequence (O75762 whole entry): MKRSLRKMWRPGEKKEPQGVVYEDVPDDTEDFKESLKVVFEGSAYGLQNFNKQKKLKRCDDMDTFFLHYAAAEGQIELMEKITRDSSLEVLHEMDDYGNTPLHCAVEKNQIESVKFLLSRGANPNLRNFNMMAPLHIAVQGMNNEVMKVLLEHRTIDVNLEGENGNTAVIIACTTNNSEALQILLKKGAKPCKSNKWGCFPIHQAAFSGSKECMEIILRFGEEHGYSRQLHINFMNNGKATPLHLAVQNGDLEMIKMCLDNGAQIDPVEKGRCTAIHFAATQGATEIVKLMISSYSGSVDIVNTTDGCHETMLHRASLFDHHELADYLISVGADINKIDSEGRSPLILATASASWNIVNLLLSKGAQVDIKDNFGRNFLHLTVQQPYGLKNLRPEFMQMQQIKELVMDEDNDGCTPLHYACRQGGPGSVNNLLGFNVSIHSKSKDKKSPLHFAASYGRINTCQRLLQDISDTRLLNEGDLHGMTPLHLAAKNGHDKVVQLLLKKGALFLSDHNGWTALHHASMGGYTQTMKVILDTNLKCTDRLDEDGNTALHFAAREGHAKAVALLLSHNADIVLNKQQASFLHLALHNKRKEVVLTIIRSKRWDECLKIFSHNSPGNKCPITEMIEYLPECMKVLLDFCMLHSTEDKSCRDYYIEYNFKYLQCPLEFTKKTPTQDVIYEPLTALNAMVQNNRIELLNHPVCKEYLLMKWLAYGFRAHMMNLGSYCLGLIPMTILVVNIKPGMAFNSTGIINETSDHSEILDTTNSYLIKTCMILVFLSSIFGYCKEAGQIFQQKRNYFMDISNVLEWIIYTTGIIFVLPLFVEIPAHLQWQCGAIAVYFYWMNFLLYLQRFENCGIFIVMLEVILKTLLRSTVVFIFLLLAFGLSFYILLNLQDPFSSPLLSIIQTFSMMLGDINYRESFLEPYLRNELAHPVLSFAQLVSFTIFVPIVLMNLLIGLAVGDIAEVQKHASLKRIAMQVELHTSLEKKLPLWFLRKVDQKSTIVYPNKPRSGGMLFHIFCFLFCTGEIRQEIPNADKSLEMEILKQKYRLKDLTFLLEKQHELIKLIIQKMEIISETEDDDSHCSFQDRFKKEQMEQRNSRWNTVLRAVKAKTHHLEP

Row | melting point | IC50 (hTRPA1) | Compound
1 | 265.63 °C | – | O=C1C2=C(NC(=S)NC2c2cccc(CO)c2)c2ccccc21 (stereo not shown) [Co. No. 14]
2 | – | ~636 nM | O=C1C2=C(NC(=S)NC2c2cccc(O)c2)c2ccccc21 (stereo not shown) [compound 6]
3 | – | 495 nM | O=C1C2=C(NC(=S)NC2c2cccc(Br)c2)c2ccccc21 (stereo not shown) [compound 11]
4 | – | 1200 nM | CCN(CC)CCOc1cccc(C2NC(=S)NC3=C2C(=O)c2ccccc23)c1 (stereo not shown) [compound 22]
5 | 289.34 °C | – | O=C1C2=C(NC(=S)NC2c2cccc3c2OCO3)c2ccccc21 (stereo not shown) [Co. No. 12]
6 | – | > 10000 nM | COc1cccc(C2C3=C(NC(=S)N2C)c2ccccc2C3=O)c1 (stereo not shown) [compound 27]
7 | 199.5 °C | – | CC(=O)OCCCCOc1cccc(C2NC(=S)NC3=C2C(=O)c2ccccc23)c1 (stereo not shown) [Co. No. 26]
8 | 295.33 °C | – | COc1ccc(OC)c(C2NC(=S)NC3=C2C(=O)c2ccccc23)c1 (stereo not shown) [Co. No. 15]
9 | – | ~85 nM | COc1cccc(C2NC(=S)N(C)C3=C2C(=O)c2ccccc23)c1 (stereo not shown) [compound 28]
10 | – | ~685 nM | O=C1C2=C(NC(=S)NC2c2cccc(OCCCCO)c2)c2ccccc21 (stereo not shown) [compound 25]
11 | 252.73 °C | – | COc1cccc([C@H]2NC(=S)NC3=C2C(=O)c2ccccc23)c1 [Co. No. 2]
12 | – | > 10000 nM | COCCCOc1cccc([C@@H]2NC(=S)NC3=C2C(=O)c2ccccc23)c1 [compound 30]
13 | – | ~76 nM | COc1cccc([C@H]2NC(=S)NC3=C2C(=O)c2ccccc23)c1 [compound 2]
14 | – | ~2780 nM | COc1cc(OC)cc(C2NC(=S)NC3=C2C(=O)c2ccccc23)c1 (stereo not shown) [compound 5]
15 | – | 1320 nM | COCCCOc1cccc([C@H]2NC(=O)NC3=C2C(=O)c2ccccc23)c1 [compound 18]
16 | 243.58 °C | – | CCN(CC)CCOc1cccc(C2NC(=S)NC3=C2C(=O)c2ccccc23)c1 (stereo not shown) [Co. No. 22]
17 | 224.49 °C | – | O=C1C2=C(NC(=S)NC2c2cccc(OCCCCO)c2)c2ccccc21 (stereo not shown) [Co. No. 25]
18 | 245.01 °C | – | O=C1C2=C(NC(=S)NC2c2cccc(OCCCOc3ccc(F)cc3)c2)c2ccccc21 (stereo not shown) [Co. No. 23]
19 | – | > 10000 nM | COc1cccc([C@@H]2NC(=S)NC3=C2C(=O)c2ccccc23)c1 [compound 3]
20 | 206.47 °C | – | COCCCOc1cccc([C@H]2NC(=O)NC3=C2C(=O)c2ccccc23)c1 [Co. No. 18]
21 | – | ~13 nM | COCCCOc1cccc([C@H]2NC(=S)NC3=C2C(=O)c2ccccc23)c1 [compound 29]
22 | – | > 10000 nM | COCCCOc1cccc([C@@H]2NC(=O)NC3=C2C(=O)c2ccccc23)c1 [compound 19]
23 | – | > 10000 nM | COc1ccc(OC)c(C2NC(=S)NC3=C2C(=O)c2ccccc23)c1 (stereo not shown) [compound 15]
24 | – | ~708 nM | O=C1C2=C(NC(=S)NC2c2cccc(CO)c2)c2ccccc21 (stereo not shown) [compound 14]
25 | – | 557 nM | CC(=O)OCCCCOc1cccc(C2NC(=S)NC3=C2C(=O)c2ccccc23)c1 (stereo not shown) [compound 26]

Row | melting point | IC50 (hTRPA1) | Compound
26 | 269.04 °C | – | COc1ccc(Oc2cccc(C3NC(=S)NC4=C3C(=O)c3ccccc34)c2)cc1 (stereo not shown) [Co. No. 20]
27 | 295.22 °C | – | COc1cccc(C2NC(=S)NC3=C2C(=O)c2ccccc23)c1 (stereo not shown) [Co. No. 1]
28 | – | 4860 nM | O=C1C2=C(NC(=S)NC2c2cccc(OCCCOc3ccc(F)cc3)c2)c2ccccc21 (stereo not shown) [compound 23]
29 | – | > 10000 nM | O=C1C2=C(NC(=S)NC2c2cccc(-c3ccc(C(F)(F)F)cc3)c2)c2ccccc21 (stereo not shown) [compound 31]
30 | 289.27 °C | – | COc1ccc(F)c(C2NC(=S)NC3=C2C(=O)c2ccccc23)c1 (stereo not shown) [Co. No. 10]
31 | – | ~1060 nM | O=C1C2=C(NC(=S)NC2c2cccc(F)c2)c2ccccc21 (stereo not shown) [compound 8]
32 | 253.6 °C | – | COc1cccc([C@@H]2NC(=S)NC3=C2C(=O)c2ccccc23)c1 [Co. No. 3]
33 | – | ~4410 nM | O=C1C2=C(NC(=S)NC2c2cccc3c2OCO3)c2ccccc21 (stereo not shown) [compound 12]
34 | 149.46 °C | – | O=C1C2=C(NC(=S)NC2c2cccc(-c3ccc(C(F)(F)F)cc3)c2)c2ccccc21 (stereo not shown) [Co. No. 31]
35 | – | 314 nM | CCCCOc1cccc(C2NC(=S)NC3=C2C(=O)c2ccccc23)c1 (stereo not shown) [compound 21]
36 | – | ~128 nM | COc1cccc(C2NC(=S)NC3=C2C(=O)c2ccccc23)c1 (stereo not shown) [compound 1]
37 | 188.65 °C | – | COc1cccc(C2NC(=O)N(Cc3ccccc3)C3=C2C(=O)c2ccccc23)c1 (stereo not shown) [Co. No. 4]
38 | 288.04 °C | – | O=C1C2=C(NC(=S)NC2c2cccc(O)c2)c2ccccc21 (stereo not shown) [Co. No. 6]
39 | 237.9 °C | – | CN(C)CCCOc1cccc(C2NC(=S)NC3=C2C(=O)c2ccccc23)c1 (stereo not shown) [Co. No. 24]
40 | – | ~287 nM | COc1cccc(C2NC(=S)NC3=C2C(=O)c2ccccc23)c1F (stereo not shown) [compound 16]
41 | 287.05 °C | – | COc1cccc(C2NC(=S)NC3=C2C(=O)c2ccccc23)c1F (stereo not shown) [Co. No. 16]
42 | 261.08 °C | – | O=C1C2=C(NC(=S)NC2c2cccc(OCCO)c2)c2ccccc21 (stereo not shown) [Co. No. 13]
43 | – | ~365 nM | COc1ccc(F)c(C2NC(=S)NC3=C2C(=O)c2ccccc23)c1 (stereo not shown) [compound 10]
44 | – | 47 nM | COCCCOc1cccc(C2NC(=S)NC3=C2C(=O)c2ccccc23)c1 (stereo not shown) [compound 7]
45 | – | ~6030 nM | COc1cccc(C2NC(=O)N(Cc3ccccc3)C3=C2C(=O)c2ccccc23)c1 (stereo not shown) [compound 4]
46 | 287.08 °C | – | COc1cc(OC)cc(C2NC(=S)NC3=C2C(=O)c2ccccc23)c1 (stereo not shown) [Co. No. 5]
47 | 207.44 °C | – | COCCCOc1cccc([C@@H]2NC(=O)NC3=C2C(=O)c2ccccc23)c1 [Co. No. 19]
48 | – | 213 nM | O=C1C2=C(NC(=S)NC2c2cccc(OCCO)c2)c2ccccc21 (stereo not shown) [compound 13]
49 | – | > 10000 nM | COc1cccc(C2NC(=S)NC3=C2C(=O)c2ccccc23)c1OC (stereo not shown) [compound 9]
50 | 286.94 °C | – | COc1cccc(C2C3=C(NC(=S)N2C)c2ccccc2C3=O)c1 (stereo not shown) [Co. No. 27]

Row | Compound | melting point | IC50 (hTRPA1)
51 | O=C1C2=C(NC(=S)NC2c2cncc(Br)c2)c2ccccc21 (stereo not shown) | 294.61 °C | –
52 | O=C1C2=C(NC(=S)NC2c2cncc(Br)c2)c2ccccc21 (stereo not shown) [compound 32] | – | 1670 nM
